Counter-ions that a name gives are not always drawn. Like-named read-outs stand apart in the source and are kept apart here.
What was measured:
[1] = biological target: T1, 2-methylserotonin-induced contraction of the ileum (5-HT3 antagonism) (Cavia porcellus, UniProt O70212); test: Antagonism against 2-methylserotonin-induced contraction or systole of ileum; format: cell-based, guinea pig (Hartley male); details: test compound added 30 minutes before 2-methylserotonin, nonterminal ileum, 37° C.; for Kb: read-out: pA2 (converted)
T1 construct: from tissue; host or cells: isolated nonterminal ileum of male Hartley guinea pig
T1 sequence (O70212 20-490): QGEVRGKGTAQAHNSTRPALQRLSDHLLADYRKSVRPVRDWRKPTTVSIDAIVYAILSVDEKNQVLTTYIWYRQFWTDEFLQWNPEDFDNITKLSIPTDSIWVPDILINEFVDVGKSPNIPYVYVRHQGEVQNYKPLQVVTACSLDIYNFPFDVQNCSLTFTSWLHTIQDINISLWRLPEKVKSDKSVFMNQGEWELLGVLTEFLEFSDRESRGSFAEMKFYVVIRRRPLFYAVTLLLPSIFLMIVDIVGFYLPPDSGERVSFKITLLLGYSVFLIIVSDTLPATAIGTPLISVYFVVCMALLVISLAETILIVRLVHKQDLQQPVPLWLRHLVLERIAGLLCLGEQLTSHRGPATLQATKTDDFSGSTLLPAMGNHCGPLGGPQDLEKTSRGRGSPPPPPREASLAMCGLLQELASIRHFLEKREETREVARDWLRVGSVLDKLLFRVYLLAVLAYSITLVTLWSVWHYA
Procedure: Antagonism against 2-methylserotonin-induced contraction or systole of ileum
This experiment was made according to the method of Sanger et al. [see Eur. J. Pharmacol., 159, 113-124 (1989)]. The nonterminal ileum of a Hartley male guinea pig was suspended in the Krebs-Henseleit solution (37° C.) by applying a load of 0.5 g to the end of the ileum and a gaseous mixture comprising 95% of oxygen and 5% of carbon dioxide was passed through the solution. The contraction of the ileum was isometrically determined. After allowing the ileum to stand for one or more hours for stabilization, a solution of a test compound was added to the solution, and after 30 minutes, 2-methylserotonin was noncumulatively added. The pA2 value was calculated from the rightward shift of the dose-response curve of the 2-methylserotonin-induced contraction caused by the test compound according to the method of Rossum et al. [see Arch. Int. Pharmacodyn., 143, 299(1963)]. BRL 24682 was used as a control in this experiment.

[2] = system: contraction of guinea pig ileum induced by electrical field stimulation (acetylcholine release); test: Effect of increasing contraction of guinea pig ileum induced by electrical field stimulation; format: cell-based; details: electrical field stimulation once per 10 seconds, cumulative addition at intervals of 10 minutes, 37° C., read-out: Min. concn. causing increment of ileal contraction
Procedure: Effect of increasing contraction of guinea pig ileum induced by electrical field stimulation
This experiment was made according to the method of Sanger et al. [see Br. J. Pharmacol., 91, 77-87 (1987)]. The longitudinal muscle of the nonterminal ileum of a guinea pig was separated and vertically suspended in the Krebs-Henseleit solution (37° C.) in a Magnus tube by applying a load of 0.5 g to the end of the muscle. A mixed gas comprising 95% of oxygen and 5% of carbon dioxide was passed through the solution. The contraction of the muscle was isometrically determined. Electrical field stimulation was applied to the muscle by the use of a platinum electrode once per 10 seconds to induce the contraction of the muscle. The contraction was caused through the release of acetylcholine. After the muscle had been stabilized, a solution of a test compound was cumulatively added into the Magnus tube at intervals of 10 minutes. The effect of the test compound is represented by percentage based on the initial contraction. The minimum concentration of each test compound at which an increment was found in the contraction due to the release of acetylcholine is shown in Table 4.

[3] = system: gastric emptying function; test: Activity for raising gastric emptying function; format: in vivo, Fischer male rats; details: oral (5 ml/kg), one hour before test food, versus control rat
Procedure: Activity for raising gastric emptying function
This experiment was made according to the method of Decktot et al. [see Eur. J. Pharmacol., 147, 313-316 (1988)]. Fischer male rats (weight: 160 to 180 g) were fasted for 18 hours before 3 ml of a test food comprising methylcellulose, beef broth, casein, sugar and corn starch was orally administered to each rat. One hour after the administration, the stomach was extirpated from each rat. The gastric emptying ratio was calculated from the weight of the test food remaining in the stomach. The ratio of rise of the gastric emptying function was determined by comparing the gastiric emptying ratio of a medicated rat with that of a control rat which had not administered any test compounds. Each test compound (5 ml/kg) was orally administered one hour before the administration of the test food. BRL 24682 was used as a control in this experiment.

Structure (SMILES)	Kb [1] [pM]	Ratio of rise of gastric emptying function [3] [%]	minimal effective concentration ([2]; Cavia porcellus, 10 min) [µM]	further results
CC#CC(C)Oc1cc(N)c(Cl)cc1C(=O)N[C@H]1C[C@H]2CC[C@@H](C1)N2C (single isomer, unassigned; (+)) [Example 36, (+)-endo-4-Amino-5-chloro-N-(8-methyl-8-azabicyclo[3.2.1]oct-3-yl)-2-{(3-pentyn-2-yl)oxy}benzamide hydrochloride]	1910			minimal effective concentration ([2]; listed as 36 (-)-isomer, hydrochloride): 0.26 µM
C#CC(CC)Oc1cc(N)c(Cl)cc1C(=O)N[C@H]1C[C@H]2CC[C@@H](C1)N2C (single isomer, unassigned; (+)) [Example 38, (+)-endo-4-Amino-5-chloro-N-(8-methyl-8-azabicyclo[3.2.1]oct-3-yl)-2-{(1-pentyn-3-yl)oxy}benzamide hydrochloride]	955			Ratio of rise of gastric emptying function ([3]; listed as 38 (+)-isomer, hydrochloride): 20.5%; minimal effective concentration ([2]; listed as 38 (-)-isomer, hydrochloride): 0.13 µM
C#CC(CC)Oc1cc(N)c(Cl)cc1C(=O)N[C@H]1C[C@H]2CC[C@@H](C1)N2C (single isomer, unassigned; (-)) [Example 37, (-)-endo-4-Amino-5-chloro-N-(8-methyl-8-azabicyclo[3.2.1]oct-3-yl)-2-{(1-pentyn-3-yl)oxy}benzamide hydrochloride]				Ratio of rise of gastric emptying function ([3]; listed as 37 (-)-isomer, hydrochloride): 15.3%; minimal effective concentration ([2]; listed as 37 (+)-isomer, hydrochloride): 0.048 µM
COc1cc(N)c(Cl)cc1C(=O)NC1CC2CCC(C1)N2C (stereo not shown) [BRL 24682, reference compound]		12.9		pA2 [1]: 7.80; minimal effective concentration [2]: 0.086 µM
CC#CC(C)Oc1cc(N)c(Cl)cc1C(=O)N[C@H]1C[C@H]2CC[C@@H](C1)N2C (stereo partly drawn) [Example 2, endo-4-Amino-5-chloro-N-(8-methyl-8-azabicyclo[3.2.1]oct-3-yl) -2-{(3-pentyn-2-yl)oxy}benzamide hydrochloride]	2090	24.5	0.05	
C#CC(CC)Oc1cc(N)c(Cl)cc1C(=O)N[C@H]1C[C@H]2CC[C@@H](C1)N2C (stereo partly drawn) [Example 20, endo-4-Amino-5-chloro-N-(8-methyl-8-azabicyclo[3.2.1]oct-3-yl)-2-{(1-pentyn-3-yl)oxy}benzamide hydrochloride]			0.11	
CC#CCOc1cc(N)c(Cl)cc1C(=O)N[C@H]1C[C@H]2CC[C@@H](C1)N2C [Example 22, endo-4-Amino-2-(2-butynyloxy)-5-chloro-N-(8-methyl-8-azabicyclo[3.2.1]oct-3-yl)benzamide hydrochloride]			> 100	
CC#CCCOc1cc(N)c(Cl)cc1C(=O)N[C@H]1C[C@H]2CC[C@@H](C1)N2C [Example 23, endo-4-Amino-5-chloro-N-(8-methyl-8-azabicyclo[3.2.1]oct-3-yl)-2-(3-pentynyloxy)benzamide hydrochloride]			> 100	
C#CC(C)Oc1cc(N)c(Cl)cc1C(=O)N[C@H]1C[C@H]2CC[C@@H](C1)N2C (stereo partly drawn) [Example 24, endo-4-Amino-2-{(3-butyn-2-yl)oxy}-5-chloro-N-(8-methyl-8-azabicyclo[3.2.1]oct-3-yl)benzamide hydrochloride]		13.2	0.17	
CCC#CC(CC)Oc1cc(N)c(Cl)cc1C(=O)N[C@H]1C[C@H]2CC[C@@H](C1)N2C (stereo partly drawn) [Example 25, endo-4-Amino-5-chloro-2-{(4-heptyn-3-yl)oxy)-N-(8-methyl-8-azabicyclo[3.2.1]oct-3-yl)benzamide hydrochloride]	891	26.3	1	
CCC#CCC(C)Oc1cc(N)c(Cl)cc1C(=O)N[C@H]1C[C@H]2CC[C@@H](C1)N2C (stereo partly drawn) [Example 26, endo-4-Amino-S-chloro-2-{(4-heptyn-2-yl)oxy}-N-(8-methyl-8-azabicyclo[3.2.1]oct-3-yl)benzamide hydrochloride]	468		> 100	
CC#CC(CC)Oc1cc(N)c(Cl)cc1C(=O)N[C@H]1C[C@H]2CC[C@@H](C1)N2C (stereo partly drawn) [Example 27, endo-4-Amino-5-chloro-2-{(2-hexyn-4-yl)oxy}-N-(8-methyl-8-azabicyclo[3.2.1]oct-3-yl)benzamide hydrochloride]	407	17.2	0.25	
CCC#CC(C)Oc1cc(N)c(Cl)cc1C(=O)N[C@H]1C[C@H]2CC[C@@H](C1)N2C (stereo partly drawn) [Example 28, endo-4-Amino-5-chloro-2-{(3-hexyn-2-yl)oxy}-N-(8-methyl-8-azabicyclo[3.2.1]oct-3-yl)benzamide hydrochloride]			> 100	
C#CC(CCC)Oc1cc(N)c(Cl)cc1C(=O)N[C@H]1C[C@H]2CC[C@@H](C1)N2C (stereo partly drawn) [Example 29, endo-4-Amino-5-chloro-2-{(1-hexyn-3-yl)oxy}-N-(8-methyl-8-azabicyclo[3.2.1]oct-3-yl)benzamide hydrochloride]	457	20.6	0.26	
CN1[C@@H]2CC[C@H]1C[C@@H](NC(=O)c1cc(Cl)c(N)cc1OCCF)C2 [Example 30, endo-4-Amino-5-chloro-2-(2-fluoroethoxy)-N-(8-methyl-8-azabicyclo[3.2.1]oct-3-yl)benzamide hydrochloride]			0.038	
CN1[C@@H]2CC[C@H]1C[C@@H](NC(=O)c1cc(Cl)c(N)cc1OCCCC#N)C2 [Example 31, endo-4-Amino-5-chloro-2-(3-cyanopropoxy)-N-(8-methyl-8-azabicyclo[3.2.1]oct-3-yl)benzamide hydrochloride]			> 100	
CN1[C@@H]2CC[C@H]1C[C@@H](NC(=O)c1cc(Cl)c(N)cc1OC1CCOCC1)C2 [Example 33, endo-4-Amino-5-chloro-N-(8-methyl-8-azabicyclo[3.2.1]-oct-3-yl)-2-(tetrahydro-4H-pyran-4-oxy)benzamide hydrochloride]	6170		1.8	
C#CCC(C)Oc1cc(N)c(Cl)cc1C(=O)N[C@H]1C[C@H]2CC[C@@H](C1)N2C (stereo partly drawn) [Example 40, endo-4-Amino-5-chloro-N-(8-methyl-8-azabicyclo[3.2.1]oct-3-yl)-2-{(4-pentyn-2-yl)oxy}benzamide hydrochloride]		16.2	0.22	
C#CCCOc1cc(N)c(Cl)cc1C(=O)N[C@H]1C[C@H]2CC[C@@H](C1)N2C [Example 46, endo-4-Amino-2-(3-butynyloxy)-5-chloro-N-(8-methyl-8-azabicyclo[3.2.1]oct-3-yl)benzamide hydrochloride]			0.16	
